Results as given in article PMC8217170, “Phase Ib dose-escalation study of the hypoxia-modifier Myo-inositol trispyrophosphate in patients with hepatopancreatobiliary tumors” (Nature Communications, 2021).
Several values for one entry are separate records, joined by “and”; a condition that tells them apart may be missing. Equal entries are not always repeated.

Test system: target lesions of PDAC, CRLM, CCA and HCC
Assay: Metabolic radiological response, FDG-PET-CT, EORTC criteria
Type: in vivo, human
Set-up: key to EORTC response after chemotherapy / EORTC response after ITPP / RespITPP_EORTC / RespChemo_EORTC: CMR = complete metabolic response; PMR = partial metabolic response; SMD = stable metabolic disease; PMD = progressive metabolic disease; Median change in metabolic activity, EORTC: concentration or dose not given beside the values; Lesion1_pre_TLG / Lesion1_post_TLG / Lesion1_chemo_TLG / Lesion2_pre_TLG / Lesion2_post_TLG / Lesion2_chemo_TLG / Lesion3_pre_TLG / Lesion3_post_TLG / Lesion3_chemo_TLG / Lesion4_pre_TLG / Lesion4_post_TLG / Lesion4_chemo_TLG / Lesion5_pre_TLG / Lesion5_post_TLG / Lesion5_chemo_TLG: unit not given here
Details: for EORTC response after chemotherapy: chemotherapy subsequent to ITPP
Experimental: Radiological assessment, consisting of abdominal MRI and FDG-PET-CT, was performed before ITPP administration and after the 3-week treatment course. Where possible, radiological re-evaluation was performed after 3–6 cycles of chemotherapy. Radiological responses were evaluated according to the RECIST 1.1 criteria[56] for MRI and EORTC criteria[57] for FDG-PET-CT imaging.
Then first calculate the sum of diameters (DM) and SUV-activities of radiological target lesions before ITPP (sum_pre), after ITPP (sum_post) and after subsequent chemotherapy (sum_chemo) for assessment of morphological RECIST1.1 (diameter) and metabolical EORTC (SUV activiy) responses.
Patient 1 (dropout after only 2 infusions and subsequent death due to rapid oncological progression) is excluded for radiological assessment due to no follow up imaging available.
In a second step, we calculate percent changes (PC) of diameter and SUV activity between before ITPP, after ITPP and after chemotherapy.

[1] = after chemotherapy subsequent to ITPP, 15 patients
[2] = individual patients, lesion 1, after subsequent chemotherapy
[3] = individual patients, lesion 1, post ITPP
[4] = individual patients, lesion 1, pre ITPP (baseline)
[5] = individual patients, lesion 2, after subsequent chemotherapy
[6] = individual patients, lesion 2, post ITPP
[7] = individual patients, lesion 2, pre ITPP (baseline)
[8] = individual patients, lesion 3, after subsequent chemotherapy
[9] = individual patients, lesion 3, post ITPP

O=P1(O)OC2C3OP(=O)(O)OP(=O)(O)OC3C3OP(=O)(O)OP(=O)(O)OC3C2OP(=O)(O)O1 (centres unmarked) [ITPP, Myo-inositol trispyrophosphate]
Median change in metabolic activity, EORTC (CCA, following chemotherapy): −32.39% | Median change in metabolic activity, EORTC (CCA, under ITPP monotherapy): 17.97% | Median change in metabolic activity, EORTC (CRLM, following chemotherapy): −14.64% | Median change in metabolic activity, EORTC (CRLM, under ITPP monotherapy): 40.1% | Median change in metabolic activity, EORTC (HCC, following chemotherapy): −8.47% | Median change in metabolic activity, EORTC (HCC, under ITPP monotherapy): 15.54% | Share of patients with PMR (ITPP monotherapy): 15% | Share of patients with SMD (ITPP monotherapy): 41% | Median change in metabolic activity, EORTC (PDAC, following chemotherapy): −52.19% | Median change in metabolic activity, EORTC (PDAC, under ITPP monotherapy): −3.36% | Metabolic progressions (PMD), EORTC (after ITPP monotherapy): 10 | Partial metabolic responses (PMR), EORTC (after ITPP monotherapy): four | Stable metabolic diseases (SMD), EORTC (after ITPP monotherapy): 11 | Patients with PMD, EORTC [1]: 4 | Patients with PMR, EORTC [1]: 4 | Patients with SMD, EORTC [1]: 7 | Share of patients with PMR (after subsequent chemotherapy): 27% | Share of patients with SMD (after subsequent chemotherapy): 47% | EORTC response after ITPP (individual patients, cohort 1 (1866 mg/m2)): PMD and PMR and SMD | EORTC response after chemotherapy (individual patients, cohort 1, 1866 mg/m2): PMR | EORTC response after ITPP (individual patients, cohort 2 (3732 mg/m2)): SMD and PMR | EORTC response after chemotherapy (individual patients, cohort 2, 3732 mg/m2): SMD and PMR | EORTC response after ITPP (individual patients, cohort 3 (5600 mg/m2)): SMD and PMR | EORTC response after chemotherapy (individual patients, cohort 3, 5600 mg/m2): SMD and PMD | EORTC response after ITPP (individual patients, cohort 4 (7000 mg/m2)): PMD and SMD | EORTC response after chemotherapy (individual patients, cohort 4, 7000 mg/m2): SMD | EORTC response after ITPP (individual patients, cohort 5 (8750 mg/m2)): SMD and PMD | EORTC response after chemotherapy (individual patients, cohort 5, 8750 mg/m2): PMD | EORTC response after ITPP (individual patients, cohort 6 (10500 mg/m2)): PMD and SMD | EORTC response after chemotherapy (individual patients, cohort 6, 10500 mg/m2): PMD and PMR and SMD | EORTC response after ITPP (individual patients, cohort 7 (12390 mg/m2)): PMD and PMR | EORTC response after chemotherapy (individual patients, cohort 7, 12390 mg/m2): SMD | EORTC response after ITPP (individual patients, cohort 8 (14500 mg/m2)): PMD and SMD | EORTC response after chemotherapy (individual patients, cohort 8, 14500 mg/m2): SMD | Lesion1_chemo_SUV [2]: 13.27 and 7.35 and 9.2 and 4.3 and 17.8 and 12.2 and 6.7 and 7.2 and 13.5 and 10.7 and 12.4 and 5.5 and 7.7 and 6.77 | Lesion1_chemo_TLG [2]: 4678.1 and 60.2 and 158.8 and 9.1 and 331.5 and 23.3 and 13.1 and 256.8 and 487.3 and 17.2 and 3.8 and 24.1 | Lesion1_post_SUV [3]: 17.32 and 8.65 and 4.69 and 14.2 and 13.2 and 10.3 and 8.4 and 9.8 and 10.7 and 12.2 and 18.4 and 13.9 and 18.7 and 7.5 and 12 and 8.8 and 12.7 and 10.8 and 45.7 and 4.25 and 11.68 and 7.7 and 10.67 and 9.79 | Lesion1_post_TLG [3]: 7101.9 and 86.3 and 302.7 and 877.7 and 139.3 and 181.7 and 75 and 382.8 and 112.3 and 878.1 and 21.6 and 249.1 and 3441.2 and 63.2 and 62.4 and 4.1 and 71.4 and 2012.6 | Lesion1_pre_SUV [4]: 14.29 and 12.03 and 5.25 and 9.2 and 10.8 and 9.1 and 7.6 and 8 and 8.3 and 7 and 14.1 and 9.3 and 12.4 and 9 and 13.2 and 11 and 12.04 and 21.6 and 5.32 and 11.06 and 6.36 and 11.68 and 11.22 | Lesion1_pre_TLG [4]: 4372.3 and 124.4 and 1117.7 and 865.6 and 104.9 and 699.3 and 37.5 and 197.8 and 43.3 and 531.1 and 1331.5 and 11.5 and 69 and 261.2 and 492.5 and 34.8 and 58.7 and 2.3 and 148.5 and 3074.9 | Lesion2_chemo_SUV [5]: 4.43 and 13.5 and 11.3 and 7.8 and 11.2 and 11 and 7 and 9.4 and 9.6 and 7.5 and 10.3 and 10.5 and 3.4 and 4.42 and 3.74 | Lesion2_chemo_TLG [5]: 4.9 and 33.2 and 133.7 and 36.1 and 149.3 and 14.3 and 27.9 and 32.3 and 3.9 and 12.6 and 26.7 | Lesion2_post_SUV [6]: 4.64 and 3.03 and 11.4 and 7.9 and 6.6 and 12.3 and 14 and 13.6 and 9 and 9.6 and 8.6 and 8.1 and 8.4 and 10.3 and 40.7 and 6.42 and 6.24 and 10.36 and 3.73 | Lesion2_post_TLG [6]: 7.8 and 11.6 and 331.6 and 39.8 and 377.1 and 65.2 and 12.4 and 11.8 and 24.4 and 19.9 and 14.3 and 147.3 and 3.1 | Lesion2_pre_SUV [7]: 3.34 and 10.83 and 7.9 and 7.2 and 3.9 and 7.6 and 11.6 and 13 and 5 and 7.8 and 5.5 and 3 and 10.2 and 13.3 and 20.8 and 5.84 and 5.77 and 11.3 and 4.77 | Lesion2_pre_TLG [7]: 3.9 and 7.1 and 175.5 and 11.2 and 263.8 and 27.2 and 31.1 and 3.3 and 23.7 and 55 and 21.4 and 24.9 and 86.2 and 13.2 | Lesion3_chemo_SUV [8]: 10.68 and 18.07 and 6.5 and 2.3 and 9.2 and 3.6 and 3.1 and 10.9 and 2.7 and 2.5 and 0 | Lesion3_chemo_TLG [8]: 308 and 244.4 and 13.2 and 1 and 42.3 and 3.4 and 0.3 and 0 | Lesion3_post_SUV [9]: 13.38 and 8.25 and 7.8 and 2.7 and 13 and 9.9 and 13.6 and 3.9 and 32.3 and 10.6 and 2.97 and 3.4 | Lesion3_post_TLG [9]: 436.7 and 47.6 and 16.7 and 1.2 and 79.1 and 13.5 and 26.8 and 22.4 and 1.1 and 3.2
